Molecules are shown by their SMILES.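 Test compounds were applied to cells in 96-well plates for 48 hours at 5 doses. Here, GI50 denotes the concentration required for 50% inhibition of growth.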 The source made the active and inactive calls. Rule as the data show it: active = GI50 up to about 1.1 µM and inactive = higher. Where a SMILES comes first, the peptide text is derived from it. [ ]: non-standard residue; d: D form. The star is where a group is joined. Phe(4-NO2) = N[CH](Cc1ccc([N+](=O)[O-])cc1)C(=O)O; Cbz = O=C(OCc1ccccc1)*

11 compounds from ChEMBL document CHEMBL1201862, “PubChem BioAssay data set” (2004) can be followed below.

Test systems include BT-549; CAKI-1; COLO 205; DU-145; EKVX; HCC 2998; HOP-62; HT-29; KM12; MDA-MB-435; NCI-H522; NCI/ADR-RES; RPMI-8226; RXF 393; SF-539; SNB-19; SNB-75; UACC-257; CCRF-CEM.
Holding throughout (test): inhibition of tumour cell growth, NCI panel, 48 h

Take `CC(C)(C)NCC(O)c1ccc(O)c(CO)n1` (configuration not stated): the GI50 in the test on BT-549, with CAKI-1, in the test on COLO 205, in the test with DU-145, with EKVX and in the test on HCC 2998 was > 100 µM (inactive) throughout. Besides, the GI50 in the test with HOP-62, in the test on HT-29, in the test on KM12, in the test with MDA-MB-435, in the test on NCI-H522 and in the test with NCI/ADR-RES was > 100 µM (inactive) in each case. Besides, the GI50 in the test on RPMI-8226, with RXF 393, in the test on SF-539, in the test on SNB-19, in the test with SNB-75 and in the test with UACC-257 was > 100 µM (inactive) throughout.
As to `CC(N/N=C(\S)N1CCN(c2ccccn2)CC1)c1cccc[n+]1[O-]` (configuration not stated), the GI50 in the test on BT-549 was 43.2 µM (inactive); in the test on CAKI-1, 14.2 µM (inactive); with CCRF-CEM it was 1.98 µM (inactive); in the test on COLO 205 it was 10.5 µM (inactive); in the test with DU-145, 57.1 µM (inactive); in the test on EKVX, 6.47 µM (inactive). Besides, the GI50 was 21.1 µM (inactive) with HCC 2998; 67.3 µM (inactive) in the test with HOP-62; 0.661 µM (active) with HT-29; 52.4 µM (inactive) in the test with KM12; 25.3 µM (inactive) in the test on MDA-MB-435; 2.12 µM (inactive) with NCI-H522. Also, the GI50 is 2.9 µM (inactive) in the test on NCI/ADR-RES; 16.2 µM (inactive) in the test with RXF 393; 17.4 µM (inactive) in the test on SF-539; 32.9 µM (inactive) in the test on SNB-19; 48.6 µM (inactive) in the test on SNB-75; 30.9 µM (inactive) in the test on UACC-257.
On to `CC(CCC(=O)O)(c1ccc(O)cc1)c1ccc(O)cc1`, for which the GI50 with BT-549, in the test with CAKI-1, with DU-145, with EKVX, in the test with HOP-62 and with HT-29 was > 100 µM (inactive) in each case. The GI50 in the test with KM12, with MDA-MB-435, with NCI-H522, in the test on NCI/ADR-RES, in the test with RXF 393 and in the test on SNB-19 was > 100 µM (inactive) each time. Also, the GI50 with UACC-257 was > 100 µM (inactive).
For `CCSCC(=O)N1CCc2c([nH]c3ccccc23)C1=O`, the GI50 was > 100 µM (inactive) in the test with BT-549; > 100 µM (inactive) in the test on CAKI-1; > 100 µM (inactive) in the test on CCRF-CEM; > 100 µM (inactive) with COLO 205; > 100 µM (inactive) in the test on DU-145; 12.6 µM (inactive) in the test on EKVX. For the same compound, the GI50 with HCC 2998 is > 100 µM (inactive); in the test on HOP-62, > 100 µM (inactive); with HT-29 it was > 100 µM (inactive); in the test on KM12, > 100 µM (inactive); in the test with MDA-MB-435, > 100 µM (inactive); in the test on NCI-H522, 64.4 µM (inactive). Further, the GI50 with NCI/ADR-RES was > 100 µM (inactive); in the test with RXF 393, > 100 µM (inactive); with SF-539 it was > 100 µM (inactive); in the test on SNB-19 it was > 100 µM (inactive); in the test on SNB-75 it was 78 µM (inactive); in the test with UACC-257, 71.4 µM (inactive).
As to `Cc1ccc(C2SCC(=O)N2NC(=O)c2ccncc2)s1` (configuration not stated), the GI50 in the test on BT-549, with CAKI-1, in the test on CCRF-CEM, in the test with COLO 205, in the test with DU-145 and in the test on EKVX was > 100 µM (inactive) in each case. The GI50 with HCC 2998, in the test with HOP-62, in the test with HT-29, in the test on KM12, in the test with MDA-MB-435 and in the test on NCI-H522 was > 100 µM (inactive) in each case. Moreover, the GI50 with NCI/ADR-RES, in the test with RPMI-8226, in the test on RXF 393, in the test with SF-539, in the test with SNB-19 and in the test on UACC-257 was > 100 µM (inactive) each time.
With `CCOC(=O)CCC(NC(=O)OCc1ccccc1)C(=O)NC(CCC(=O)OCC)C(=O)NC(Cc1ccc([N+](=O)[O-])cc1)C(=O)NC(CCC(=O)OCC)C(=O)NC(CCC(=O)OCC)C(=O)OCC` (configuration not stated) (Cbz-E(OEt)E(OEt)[Phe(4-NO2)]E(OEt)E(OEt)-OEt; configuration not given here), the GI50 in the test on BT-549, in the test on CAKI-1, in the test on CCRF-CEM, in the test on COLO 205, in the test with DU-145 and in the test with EKVX was > 100 µM (inactive) throughout. In addition, the GI50 in the test with HOP-62, in the test with HT-29, in the test with KM12, in the test with MDA-MB-435, in the test with NCI-H522 and in the test with NCI/ADR-RES was > 100 µM (inactive) in each case. Further, the GI50 in the test on RPMI-8226, with RXF 393, with SNB-19, in the test on SNB-75 and in the test with UACC-257 was > 100 µM (inactive) in each case.
`Cc1nc2ccccc2n1Cc1nnc(N)o1`: the GI50 with BT-549, with CCRF-CEM, with COLO 205, with DU-145, in the test on EKVX and with HCC 2998 was > 100 µM (inactive) each time. For the same compound, the GI50 with HOP-62 was > 100 µM (inactive); with HT-29, > 100 µM (inactive); with KM12, > 100 µM (inactive); in the test on MDA-MB-435, 0.1 µM (active); in the test with NCI-H522, > 100 µM (inactive); in the test with NCI/ADR-RES it was > 100 µM (inactive). Moreover, the GI50 in the test with RPMI-8226, with RXF 393, in the test on SF-539, in the test on SNB-19, in the test with SNB-75 and with UACC-257 was > 100 µM (inactive) throughout.
`CCOC(=O)C1=C(C)N(c2ccc(Cl)cc2)C2(O)C=CC(=O)C3C(=O)N(c4ccccc4)C(=O)C132` (configuration not stated): the GI50 in the test on BT-549 was 2.25 µM (inactive); in the test on CAKI-1 it was 1.87 µM (inactive); with CCRF-CEM, 0.476 µM (active); in the test on COLO 205, 1.67 µM (inactive); in the test with DU-145, 1.87 µM (inactive); with EKVX, 1.91 µM (inactive). Also, the GI50 in the test on HOP-62 was 2.02 µM (inactive); in the test with HT-29 it was 1.82 µM (inactive); with KM12 it was 1.69 µM (inactive); in the test on MDA-MB-435 it was 2.23 µM (inactive); with NCI-H522 it was 1.1 µM (active); with NCI/ADR-RES it was 2.36 µM (inactive). The GI50 with RPMI-8226 is 1.07 µM (active); in the test on RXF 393 it was 1.76 µM (inactive); with SF-539 it was 2.27 µM (inactive); in the test on SNB-19, 2.18 µM (inactive); with SNB-75, 1.77 µM (inactive); in the test with UACC-257, 2.29 µM (inactive).
For `CC1=NN(c2nc(N)nc(-c3cc4ccccc4oc3=N)n2)C(C)(C)C1`, the GI50 in the test with BT-549 is 26.7 µM (inactive); in the test with CAKI-1, 17.3 µM (inactive); in the test on CCRF-CEM it was 20.7 µM (inactive); in the test with COLO 205, 17 µM (inactive); with DU-145, 20.9 µM (inactive); in the test on EKVX, 14.7 µM (inactive). The GI50 in the test with HCC 2998 was 15 µM (inactive); in the test with HOP-62 it was 21.4 µM (inactive); with HT-29, 19.7 µM (inactive); in the test with KM12 it was 17.7 µM (inactive); in the test with MDA-MB-435, 19.7 µM (inactive); in the test with NCI-H522, 20.6 µM (inactive). Further, the GI50 with NCI/ADR-RES is 22 µM (inactive); with RPMI-8226, 19.6 µM (inactive); with RXF 393, 20.7 µM (inactive); with SF-539, 19.5 µM (inactive); in the test on SNB-19 it was 32.7 µM (inactive); in the test on UACC-257 it was 16.7 µM (inactive).
In the case of `Nc1cc2c(nc3c4ccccc4c(N)cc3[n+]2-c2cccc3ccccc23)c2ccccc12.Nc1cc2c(nc3c4ccccc4ccc3[n+]2-c2cccc3ccccc23)c2ccccc12`, the GI50 was 4.11 µM (inactive) with BT-549; 3.66 µM (inactive) in the test on CAKI-1; 0.229 µM (active) in the test on CCRF-CEM; 1.93 µM (inactive) with COLO 205; 3.03 µM (inactive) in the test with DU-145; 1.61 µM (inactive) in the test on EKVX. The GI50 in the test with HOP-62 is 2.81 µM (inactive); with HT-29 it was 1.36 µM (inactive); in the test on KM12, 1.31 µM (inactive); in the test on MDA-MB-435 it was 1.45 µM (inactive); in the test with NCI-H522 it was 1.25 µM (inactive); in the test with NCI/ADR-RES, 8.18 µM (inactive). The GI50 is 0.146 µM (active) with RPMI-8226; 2.45 µM (inactive) with RXF 393; 7.74 µM (inactive) in the test on SF-539; 4.56 µM (inactive) with SNB-19; 1.68 µM (inactive) in the test with SNB-75; 1.15 µM (inactive) in the test with UACC-257.
Consider `OCCCCn1cc(Cn2ncc3c(O)ncnc32)nn1`, for which the GI50 with BT-549, in the test on CAKI-1, with CCRF-CEM, with COLO 205, in the test with DU-145 and in the test on EKVX was > 100 µM (inactive) throughout. Besides, the GI50 in the test with HCC 2998, in the test on HOP-62, with HT-29, in the test with KM12, with MDA-MB-435 and in the test with NCI-H522 was > 100 µM (inactive) in each case. The GI50 in the test with NCI/ADR-RES, in the test with RPMI-8226, in the test with RXF 393, in the test with SF-539, in the test on SNB-19 and with UACC-257 was > 100 µM (inactive) in each case.
